Reference: US20250320206A1, “STAT6 DEGRADERS” (Gilead Sciences, Inc., priority 2024, published 2025)

Key:
[1] = tested on: Eotaxin-3 release in human whole blood stimulated with IL-4; assay: Human Whole Blood Eotaxin-3 Assay (IL-4 stimulated eotaxin-3 release); assay type: cell-based; settings: IL-4 stimulation, 48 h, values given for compounds with >80% Emax, geometric mean
Method: Human Whole Blood Eotaxin-3 Assay
This was a human whole blood assay using recombinant human Interleukin 4 to stimulate the blood and measuring the ability of the test compounds to inhibit eotaxin-3 release. The biological activities of the test compounds have been tested in human whole blood stimulated with IL-4 measuring Eotaxin-3 release. The test compounds were added to 384 well clear flat-bottom plate in a 4-fold serial dilution in triplicates using a liquid handler. Human whole blood stabilized in lithium-heparin tubes was added in a volume of 65 μL per well, resulting in a final DMSO concentration of 0.5%. The plate is incubated for 2 h at 37° C. under 5% CO2/95% air. Subsequently, 5 μL of recombinant human IL-4 (R&D Systems, cat #204-ILB) was added to the wells to a final concentration of […]. The plate was incubated for 48 h at 37° C. under 5% CO2/95% air. The plate was spun down for 10 minutes at 500×g and 20 μL supernatant was harvested and transferred to a 384 well v-bottom plate using a liquid handler and stored at −20° C. until further analysis. 10 μL supernatant was used to measure the level of Eotaxin-3 (CCL26) using Human Eotaxin-3 MSD kit from Mesocsale (Cat #K251UEK-4). The assay was performed according to the manufacture instructions.
The data from the human whole blood eotaxin-3 assay is shown in FIG. 2 for Examples 3u208, 3u246, 3u118, 3u119, 3u120, and 3u74 (where the effect in % is plotted against the test concentration in M on a log scale).

[2] = biological target: T1, STAT6 (Homo sapiens, UniProt P42226); assay: Stat6 Degrader Assay (HiBiT based, HeLa LgBiT clone 4.14); assay type: cell-based; settings: HeLa LgBiT clone 4.14 HiBiT-STAT6, 4-24 h incubation; for DC50: values given for compounds with >80% Emax, geometric mean, read-out: STAT6 degradation DC50
T1 construct: These cells express endogenous STAT6; host or cells: HeLa LgBiT clone 4.14
T1 sequence (P42226 1-847): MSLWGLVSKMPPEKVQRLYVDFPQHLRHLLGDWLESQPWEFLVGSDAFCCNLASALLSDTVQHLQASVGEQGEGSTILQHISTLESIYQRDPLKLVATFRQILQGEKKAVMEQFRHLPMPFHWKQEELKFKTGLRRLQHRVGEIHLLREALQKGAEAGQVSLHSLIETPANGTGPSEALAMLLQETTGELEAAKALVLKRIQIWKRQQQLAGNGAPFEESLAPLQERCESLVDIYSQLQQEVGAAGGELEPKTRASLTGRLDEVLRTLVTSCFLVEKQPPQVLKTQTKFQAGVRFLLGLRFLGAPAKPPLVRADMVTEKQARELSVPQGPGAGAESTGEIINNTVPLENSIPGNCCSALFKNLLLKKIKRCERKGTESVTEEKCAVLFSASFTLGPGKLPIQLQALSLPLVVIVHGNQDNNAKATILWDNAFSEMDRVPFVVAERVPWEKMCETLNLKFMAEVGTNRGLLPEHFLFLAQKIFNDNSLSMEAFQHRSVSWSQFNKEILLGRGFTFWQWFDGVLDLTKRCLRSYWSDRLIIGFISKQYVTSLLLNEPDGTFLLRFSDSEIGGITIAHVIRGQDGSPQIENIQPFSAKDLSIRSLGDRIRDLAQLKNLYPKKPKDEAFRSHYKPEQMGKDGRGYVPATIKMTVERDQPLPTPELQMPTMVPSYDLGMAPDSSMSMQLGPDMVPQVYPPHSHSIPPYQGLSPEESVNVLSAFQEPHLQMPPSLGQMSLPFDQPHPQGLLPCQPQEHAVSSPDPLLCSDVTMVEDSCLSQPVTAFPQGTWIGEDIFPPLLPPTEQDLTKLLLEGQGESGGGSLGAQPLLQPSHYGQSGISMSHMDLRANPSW
Summary of the method: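 HeLa LgBiT clone 4.14 cells with CRISPR HiBiT-tagged endogenous STAT6, 5000 cells/well, compound dosed then incubated 4-24 h at 37° C, 5% CO2. Nano-Glo substrate added, 0.5 h, luminescence read as non-degraded STAT6. Terfenadine 50 μM (cell kill) defines 100% degradation.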

| SMILES | EC50 [1] [nM] | DC50 [2] [nM] | Emax ([2]; read-out: STAT6 degradation Emax) [%] |
| --- | --- | --- | --- |
| CNc1ccn(-c2ccnc3c2cc([C@H](C)N2CC=C(c4c(C)cc(C(=O)N(C)c5ccc(C6CCN(Cc7ccc8c(c7)n(C)c(=O)n8[C@@H]7CCC(=O)NC7=O)CC6)cc5)cc4F)CC2)n3C)c(=O)c1 (single isomer, unassigned) [Example 3u227] | 0.3 | 0.04 | – |
| CNc1cc(=O)n(-c2ccnc3c2cc(CN2CCC(c4c(F)cc(C(=O)N5CCC(CN6CCN(c7ccc8c(c7)C7(CC7)C(=O)N8C7CCC(=O)NC7=O)CC6)CC5)cc4F)CC2)n3C)cc1F (stereo not shown) [Example 3u301, 3-(5′-(4-((1-(3,5-difluoro-4-(1-((4-(5-fluoro-4-(methylamino)-2-oxopyridin-1 (2H)-yl)-1-methyl-1H-pyrrolo[2,3-b]pyridin-2-yl)methyl)piperidin-4-yl)benzoyl)piperidin-4-yl)methyl)-piperazin-1-yl)-2′-oxospiro[cyclopropane-1,3′-indolin]-1′-yl)piperidine-2,6-dione] | 90.5 | – | 20 to 30 |
| C[C@H]1CN(Cc2ccc3c(c2)n(C2CC2)c(=O)n3[C@@H]2CCC(=O)NC2=O)CCN1CC1CCN(C(=O)c2cc(F)c(C3CCN(Cc4cc5c(-n6ccc7c(c6=O)CCN7)ccnc5n4C)CC3)c(F)c2)CC1 (single isomer, unassigned) [Example 3u108] | 4.1 | 3.4 | – |
| CNc1cc(=O)n(-c2ccnc3c2cc(CN2CCC(c4c(F)cc(C(=O)N5CCC(CN6CCN(Cc7ccc8c(c7)n(C)c(=O)n8[C@H]7CCC(=O)NC7=O)C[C@@H]6C)CC5)cc4F)CC2)n3C)cc1F (single isomer, unassigned) [Example 3u61] | 1.2 | 1.9 | – |
| CNc1cc(=O)n(-c2ccnc3c2cc(CN2CCC(c4c(F)cc(C(=O)N5CCC(CN6CCN(Cc7ccc8c(c7)C(C)(C)C(=O)N8[C@H]7CCC(=O)NC7=O)CC6)CC5)cc4F)CC2)n3C)cc1F (single isomer, unassigned) [Example 3u58] | 12.6 | 7.6 | – |
| C[C@H]1CN(Cc2ccc3c(c2)n(C2CC2)c(=O)n3[C@H]2CCC(=O)NC2=O)CCN1CC1CCN(C(=O)c2cc(F)c(C3CCN(Cc4cc5c(-n6ccc7c(c6=O)CCN7)ccnc5n4C)CC3)c(F)c2)CC1 (single isomer, unassigned) [Example 3u107] | 2.8 | 2.5 | – |
| CNc1cc(=O)n(-c2ccnc3c2cc(CN2CCC(c4c(F)cc(C(=O)N5CCC(CN6CCN(Cc7ccc8c(c7)n(C)c(=O)n8[C@H]7CCC(=O)NC7=O)CC6)CC5)cc4F)CC2)n3C)cc1F (single isomer, unassigned) [Example 3u27] | 5.7 | 2 | – |

The remaining lines, values ahead:

| EC50 [1] [nM] | DC50 [2] [nM] | Emax ([2]; read-out: STAT6 degradation Emax) [%] | SMILES |
| --- | --- | --- | --- |
| 0.6 | 0.8 | – | CNc1ccn(-c2ccnc3c2cc([C@H](C)N2CC=C(c4c(C)cc(C(=O)N5CCC(CN6CCN(Cc7ccc8c(c7)C7(CC7)C(=O)N8C7CCC(=O)NC7=O)C[C@@H]6C)CC5)cc4F)CC2)n3C)c(=O)n1 (stereo partly drawn) [Example 3u125, 3-(5′-(((S)-4-((1-(3-fluoro-5-methyl-4-(1-((S)-1-(1-methyl-4-(4-(methylamino)-2-oxopyrimidin-1 (2H)-yl)-1H-pyrrolo[2,3-b]pyridin-2-yl)ethyl)-1,2,3,6-tetrahydropyridin-4-yl)benzoyl)piperidin-4-yl)methyl)-3-methylpiperazin-1-yl)methyl)-2′-oxospiro[cyclopropane-1,3′-indolin]-1′-yl)piperidine-2,6-dione] |
| 50.3 | 7.3 | – | CNc1cc(=O)n(-c2ccnc3c2cc([C@H](C)N2CC=C(c4c(C)cc(C(=O)N5CCC(CN6CCN(c7ccc8c(c7)C7(CC7)C(=O)N8[C@@H]7CCC(=O)NC7=O)C[C@@H]6C)CC5)cc4F)CC2)n3C)cc1F (single isomer, unassigned) [Example 3u64] |
| 0.3 | 0.2 | – | CNc1ccn(-c2ccnc3c2cc([C@H](C)N2CC=C(c4c(C)cc(C(=O)N5CCC(CN6CCN(Cc7ccc8c(c7)n(C)c(=O)n8[C@H]7CCC(=O)NC7=O)C[C@@H]6C)CC5)cc4F)CC2)n3C)c(=O)c1 (single isomer, unassigned) [Example 3u33] |
| 0.3 | 0.7 | – | C[C@H]1CN(Cc2ccc3c(c2)n(C)c(=O)n3C2CCC(=O)NC2=O)CCN1CC1CCN(C(=O)c2ccc(C3CCN([C@@H](C)c4cc5c(-n6ccc7c(c6=O)CCN7)ccnc5n4C)CC3)cc2)CC1 (stereo partly drawn) [Example 3e44, 3-(3-methyl-5-(((S)-3-methyl-4-((1-(4-(1-((S)-1-(1-methyl-4-(4-oxo-1,2,3,4-tetrahydro-5H-pyrrolo[3,2-c]pyridin-5-yl)-1H-pyrrolo[2,3-b]pyridin-2-yl)ethyl)piperidin-4-yl)benzoyl)piperidin-4-yl)methyl)piperazin-1-yl)methyl)-2-oxo-2,3-dihydro-1H-benzo[d]imidazol-1-yl)piperidine-2,6-dione] |
| 9.9 | 2 | – | C[C@H]1CN(Cc2cc3c(cc2F)N(C2CCC(=O)NC2=O)C(=O)C3(C)C)CCN1CC1CCN(C(=O)c2cc(F)c(C3=CCN([C@@H](C)c4cc5c(-n6ccc7c(c6=O)CCN7)ccnc5n4C)CC3)c(F)c2)CC1 (stereo partly drawn) [Example 3u200, 3-(5-(((S)-4-((1-(3,5-difluoro-4-(1-((S)-1-(1-methyl-4-(4-oxo-1,2,3,4-tetrahydro-5H-pyrrolo[3,2-c]pyridin-5-yl)-1H-pyrrolo[2,3-b]pyridin-2-yl)ethyl)-1,2,3,6-tetrahydropyridin-4-yl)-benzoyl)piperidin-4-yl)methyl)-3-methylpiperazin-1-yl)methyl)-6-fluoro-3,3-dimethyl-2-oxoindolin-1-yl)piperidine-2,6-dione] |
| 4.2 | 4 | – | CNc1ccn(-c2ccnc3c2cc([C@H](C)N2CC=C(c4c(C)cc(C(=O)N5CCC(CN6CCN(c7ccc8c(c7)C(C)(C)C(=O)N8[C@@H]7CCC(=O)NC7=O)CC6)CC5)cc4F)CC2)n3C)c(=O)c1 (single isomer, unassigned) [Example 3u281] |
| 12.9 | 1.7 | – | CNc1cc(=O)n(-c2ccnc3c2cc(CN2CCC(c4c(F)cc(C(=O)N5CCC(CN6CCN(Cc7ccc8c(c7)C(C)(C)C(=O)N8[C@H]7CCC(=O)NC7=O)C[C@@H]6C)CC5)cc4F)CC2)n3C)cc1F (single isomer, unassigned) [Example 3u49] |
| 3.8 | 1.3 | – | CNc1ccn(-c2ccnc3c2cc([C@H](C)N2CC=C(c4c(F)cc(C(=O)N5CCC(CN6CCN(Cc7ccc8c(c7)C(C)(C)C(=O)N8C7CCC(=O)NC7=O)C[C@@H]6C)CC5)cc4F)CC2)n3C)c(=O)c1 (stereo partly drawn) [Example 3u201, 3-(5-(((S)-4-((1-(3,5-difluoro-4-(1-((S)-1-(1-methyl-4-(4-(methylamino)-2-oxopyridin-1 (2H)-yl)-1H-pyrrolo[2,3-b]pyridin-2-yl)ethyl)-1,2,3,6-tetrahydropyridin-4-yl)benzoyl)piperidin-4-yl)-methyl)-3-methylpiperazin-1-yl)methyl)-3,3-dimethyl-2-oxoindolin-1-yl)piperidine-2,6-dione] |
| 2.3 | 2.8 | – | C[C@H]1CN(Cc2ccc3c(c2)C(C)(C)C(=O)N3[C@H]2CCC(=O)NC2=O)CCN1CC1CCN(C(=O)c2ccc(C3CCN([C@@H](C)c4cc5c(-n6ccc7c(c6=O)CCN7)ccnc5n4C)CC3)cc2)CC1 (single isomer, unassigned) [Example 3u185] |
| 1.7 | 1.4 | – | CNc1ccn(-c2ccnc3c2cc([C@H](C)N2CC=C(c4c(C)cc(C(=O)N5CCC(CN6CCN(c7ccc8c(c7)n(C7CC7)c(=O)n8[C@H]7CCC(=O)NC7=O)CC6)CC5)cc4F)CC2)n3C)c(=O)c1 (single isomer, unassigned) [Example 3u279] |
